Assays:
HCV = settings: cited from earlier work

Molecule: interferon alfa 2b
- response rate (measured by major fall in HCV levels) (HCV; administered parenterally for up to 6 months): ~25%

Molecule: NC(=O)c1ncn([C@@H]2O[C@H](CO)[C@@H](O)[C@H]2O)n1 [Ribavirin, ribavirin]
- virologic response (hepatitis C; Example A: lower doses of ribavirin (less than 400 mg/day or less than 6 mg/kg/day), slow-release, with 3 million IU Intron A once weekly): sustained virologic response
- therapeutic response versus conventional or systemic doses (hepatitis C; Example B: higher doses of ribavirin (600 mg/day), slow-release, with 3 million IU Intron A once weekly): more complete or faster therapeutic response
- side effects versus conventional or systemic doses (hepatitis C; human, in vivo): lower side effects
- effect on HCV viral load or hepatic histology (HCV; given as monotherapy, orally): no effect

Reference: patent US20070202078A1, “Method Of Treating Viral Infections” (priority 2003, published 2007)
